Legend:
Test in all cases: relative viability (nuclei count vs DMSO), 5 days (fraction); higher = more cells survive
[1] = test system: CAL-12T
In short: (§1)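 Relative viability divides the nuclei count in treated wells by that in vehicle wells. Lung cancer cell lines were seeded in 1536-well plates, dosed by pin tool the next day, and fixed and stained after 5 days in one step with final 0.05% Triton X-100, 1% formaldehyde and 1 ug/ml Hoechst. Dosing was a single drug or a fixed anchor-drug dose plus five library-drug doses (not always all listed) in √10 steps, and values are medians of duplicate plates imaged at 4×.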

[2] = test system: EKVX
In short: as §1

[3] = test system: H3255
In short: as §1

[4] = test system: HCC-15
In short: as §1

[5] = test system: HCC-827
In short: as §1

[6] = test system: LCLC-97TM1
In short: as §1

[7] = test system: LK-2
In short: as §1

[8] = test system: NCI-H1355
In short: as §1

[9] = test system: NCI-H1563
In short: as §1

[10] = test system: NCI-H1650
In short: as §1

[11] = test system: NCI-H1734
In short: as §1

[12] = test system: NCI-H1755
In short: as §1

[13] = test system: NCI-H1975
In short: as §1

[14] = test system: NCI-H2228
In short: as §1

[15] = test system: NCI-H2342
In short: as §1

[16] = test system: NCI-H2405
In short: as §1

[17] = test system: NCI-H322M
In short: as §1

[18] = test system: NCI-H520
In short: as §1

[19] = test system: NCI-H661
In short: as §1

[20] = test system: PC-14
In short: as §1

[21] = test system: PC-3 [JPC-3]
In short: as §1

[22] = test system: RERF-LC-KJ
In short: as §1

## COc1cc2nccc(Oc3ccc(NC(=O)Nc4cc(C)on4)c(Cl)c3)c2cc1OC [Tivozanib] + COc1cc2c(Oc3ccc(NC(=O)C4(C(=O)Nc5ccc(F)cc5)CC4)cc3F)ccnc2cc1OCCCN1CCOCC1 [Foretinib] (partner 0.25 µM)
[1]; first compound 0.005 µM
  relative viability: 1.07
[1]; first compound 0.01581 µM
  relative viability: 0.998
[1]; first compound 0.05 µM
  relative viability: 1.11
[1]; first compound 0.1581 µM
  relative viability: 1.24
[1]; first compound 0.5 µM
  relative viability: 0.916
[2]; first compound 0.005 µM
  relative viability: 0.695
[2]; first compound 0.01581 µM
  relative viability: 0.891
[2]; first compound 0.05 µM
  relative viability: 0.84
[2]; first compound 0.1581 µM
  relative viability: 0.456
[2]; first compound 0.5 µM
  relative viability: 0.786
[3]; first compound 0.005 µM
  relative viability: 0.831
[3]; first compound 0.01581 µM
  relative viability: 0.839
[3]; first compound 0.05 µM
  relative viability: 0.907
[3]; first compound 0.1581 µM
  relative viability: 0.66
[3]; first compound 0.5 µM
  relative viability: 0.735
[4]; first compound 0.005 µM
  relative viability: 0.915
[4]; first compound 0.01581 µM
  relative viability: 0.994
[4]; first compound 0.05 µM
  relative viability: 0.993
[4]; first compound 0.1581 µM
  relative viability: 1.03
[4]; first compound 0.5 µM
  relative viability: 0.977
[5]; first compound 0.005 µM
  relative viability: 0.994
[5]; first compound 0.01581 µM
  relative viability: 1.09
[5]; first compound 0.05 µM
  relative viability: 1.02
[5]; first compound 0.1581 µM
  relative viability: 1.09
[5]; first compound 0.5 µM
  relative viability: 1.01
[6]; first compound 0.005 µM
  relative viability: 0.904
[6]; first compound 0.01581 µM
  relative viability: 0.939
[6]; first compound 0.05 µM
  relative viability: 0.92
[6]; first compound 0.1581 µM
  relative viability: 0.982
[6]; first compound 0.5 µM
  relative viability: 0.928
[7]; first compound 0.005 µM
  relative viability: 1.36
[7]; first compound 0.01581 µM
  relative viability: 1.09
[7]; first compound 0.05 µM
  relative viability: 1.18
[7]; first compound 0.1581 µM
  relative viability: 1.1
[7]; first compound 0.5 µM
  relative viability: 1.02
[8]; first compound 0.005 µM
  relative viability: 0.937
[8]; first compound 0.01581 µM
  relative viability: 0.978
[8]; first compound 0.05 µM
  relative viability: 0.975
[8]; first compound 0.1581 µM
  relative viability: 0.929
[8]; first compound 0.5 µM
  relative viability: 0.966
[9]; first compound 0.005 µM
  relative viability: 0.853
[9]; first compound 0.01581 µM
  relative viability: 1.01
[9]; first compound 0.05 µM
  relative viability: 0.888
[9]; first compound 0.1581 µM
  relative viability: 0.847
[9]; first compound 0.5 µM
  relative viability: 0.867
[10]; first compound 0.005 µM
  relative viability: 0.955
[10]; first compound 0.01581 µM
  relative viability: 1.18
[10]; first compound 0.05 µM
  relative viability: 1.15
[10]; first compound 0.1581 µM
  relative viability: 0.935
[10]; first compound 0.5 µM
  relative viability: 1.08
[11]; first compound 0.005 µM
  relative viability: 0.88
[11]; first compound 0.01581 µM
  relative viability: 0.888
[11]; first compound 0.05 µM
  relative viability: 0.913
[11]; first compound 0.1581 µM
  relative viability: 0.823
[11]; first compound 0.5 µM
  relative viability: 0.863
[12]; first compound 0.005 µM
  relative viability: 0.916
[12]; first compound 0.01581 µM
  relative viability: 0.865
[12]; first compound 0.05 µM
  relative viability: 0.945
[12]; first compound 0.1581 µM
  relative viability: 0.988
[12]; first compound 0.5 µM
  relative viability: 0.881
[13]; first compound 0.005 µM
  relative viability: 0.938
[13]; first compound 0.01581 µM
  relative viability: 0.967
[13]; first compound 0.05 µM
  relative viability: 1.04
[13]; first compound 0.1581 µM
  relative viability: 0.965
[13]; first compound 0.5 µM
  relative viability: 0.918
[14]; first compound 0.005 µM
  relative viability: 0.887
[14]; first compound 0.01581 µM
  relative viability: 0.985
[14]; first compound 0.05 µM
  relative viability: 1.13
[14]; first compound 0.1581 µM
  relative viability: 0.82
[14]; first compound 0.5 µM
  relative viability: 0.928
[15]; first compound 0.005 µM
  relative viability: 0.96
[15]; first compound 0.01581 µM
  relative viability: 1.11
[15]; first compound 0.05 µM
  relative viability: 1.11
[15]; first compound 0.5 µM
  relative viability: 1.05
[16]; first compound 0.005 µM
  relative viability: 1.03
[16]; first compound 0.01581 µM
  relative viability: 1.04
[16]; first compound 0.05 µM
  relative viability: 1.08
[16]; first compound 0.1581 µM
  relative viability: 1.07
[16]; first compound 0.5 µM
  relative viability: 0.966
[17]; first compound 0.005 µM
  relative viability: 0.843
[17]; first compound 0.01581 µM
  relative viability: 1.01
[17]; first compound 0.05 µM
  relative viability: 0.989
[17]; first compound 0.1581 µM
  relative viability: 0.926
[17]; first compound 0.5 µM
  relative viability: 0.969
[18]; first compound 0.005 µM
  relative viability: 0.595
[18]; first compound 0.01581 µM
  relative viability: 0.702
[18]; first compound 0.05 µM
  relative viability: 0.74
[18]; first compound 0.1581 µM
  relative viability: 0.644
[18]; first compound 0.5 µM
  relative viability: 0.712
[19]; first compound 0.005 µM
  relative viability: 1
[19]; first compound 0.01581 µM
  relative viability: 0.997
[19]; first compound 0.05 µM
  relative viability: 1.03
[19]; first compound 0.1581 µM
  relative viability: 0.806
[19]; first compound 0.5 µM
  relative viability: 0.987
[20]; first compound 0.005 µM
  relative viability: 0.911
[20]; first compound 0.01581 µM
  relative viability: 0.959
[20]; first compound 0.05 µM
  relative viability: 1.01
[20]; first compound 0.1581 µM
  relative viability: 1.09
[20]; first compound 0.5 µM
  relative viability: 0.904
[21]; first compound 0.005 µM
  relative viability: 1.01
[21]; first compound 0.01581 µM
  relative viability: 1.07
[21]; first compound 0.05 µM
  relative viability: 1.07
[21]; first compound 0.1581 µM
  relative viability: 1.06
[21]; first compound 0.5 µM
  relative viability: 1.01
[22]; first compound 0.005 µM
  relative viability: 0.821
[22]; first compound 0.01581 µM
  relative viability: 0.79
[22]; first compound 0.05 µM
  relative viability: 0.849
[22]; first compound 0.1581 µM
  relative viability: 0.919
[22]; first compound 0.5 µM
  relative viability: 0.863

From the supplement of paper PMC10307832
